Test results from patent publication US9517254B2, “Treatment regimens” (S1 Biopharma, Inc., priority 2012, dated 2016).
Several values for one entry are separate records, joined by “and”; a condition that tells them apart may be missing. Equal entries are not always repeated. Numbered stars: 1 amine (or outer) side, 2 acyl side, 3 side chain; on linkers, the order of the positions; unused ones are H or OH. Bridge positions count the residues as written; N and C are the ends. Square brackets hold non-standard residues; d marks the D form. Peptide text beside a SMILES is read from it. X1 = O=C(c1ccc(O)cc1)[C@H](N[*:1])C(=O)[*:2]

Key:
men = details: 24 IU intranasal, placebo-controlled; cited from earlier work
patients = details: transnasal, three patients; cited from earlier work
healthy volunteer [1] = assay: Patient's global impression of improvement (PGI) for sexual events (arousal, orgasm, overall satisfaction), same single-volunteer study; format: in vivo, human
healthy volunteer [2] = assay: Daily sexual desire score (0-2) in a single volunteer given four sequential 4-week treatments; format: in vivo, human; details: for sexual desire response: 4 weeks of treatment; for sexual desire, comparison of bupropion alone with trazodone alone: 4 weeks each
Protocol: A healthy volunteer in a stable marital relationship for two years with no current sexual disorders, exposed themself sequentially to four treatments, each for 4 weeks: (1) Treatment B: Instant-release (IR) Bupropion (Bup) 150 mg in the morning and 100 mg in the evening; (2) Treatment T: IR trazodone (Trz) 50 mg t.i.d.; (3) Treatment Llow, IR Trz 25 mg b.i.d. plus IR Bup 150 mg in the morning and 100 mg in the evening; and (4) Treatment Lhigh, IR Trz 50 mg t.i.d. plus IR Bup 75 mg t.i.d. A washout of 1-4 weeks occurred between each treatment.
The test used for the desire score was a two-tailed paired t test, using all scores within a given treatment as repeated measures. […] Both were from the website graphpad.com.* *http://graphpad.com/quickcalcs/chisquared1.cfm

[3] = wks 1-2, arousal, orgasm, overall satisfaction

Structure (SMILES) | PGI Improved for Sexual Events, Sum of 3 domains, % improved (healthy volunteer [1]; total, all four weeks) [%] | PGI Improved for Sexual Events, Sum of 3 domains, n/N (healthy volunteer [1]; total, all four weeks) | PGI Improved for Sexual Events, Sum of 3 domains, % improved (healthy volunteer [1]; wks 1-2) [%] | PGI Improved for Sexual Events, Sum of 3 domains, n/N (healthy volunteer [1]; [3]) | PGI Improved for Sexual Events, Sum of 3 domains, % improved (healthy volunteer [1]; wks 3-4) [%] | PGI Improved for Sexual Events, Sum of 3 domains, n/N (healthy volunteer [1]; wks 3-4) | sexual desire response (healthy volunteer [2]) | 0-2 Daily Desire Score, mean ± SD (healthy volunteer [2]; total, all four weeks) | 0-2 Daily Desire Score, mean ± SD (healthy volunteer [2]; wks 1-2) | 0-2 Daily Desire Score, % of max. (healthy volunteer [2]; wks 1-2, max. = 28) [%] | 0-2 Daily Desire Score, total (healthy volunteer [2]; wks 1-2, max. = 28) | 0-2 Daily Desire Score, % of max. (healthy volunteer [2]; wks 3-4, max. = 28) | 0-2 Daily Desire Score, total (healthy volunteer [2]; wks 3-4, max. = 28) | also measured
CC[C@H](C)[C@@H]1NC(=O)[C@H](C(=O)c2ccc(O)cc2)NC(=O)[C@@H](N)CSSC[C@@H](C(=O)N2CCC[C@H]2C(=O)N[C@@H](CC(C)C)C(=O)NCC(N)=O)NC(=O)[C@H](CC(N)=O)NC(=O)[C@H](CCC(N)=O)NC1=O [OT, 1-({(4R,7S,10S,13S,16S,19R)-19-amino-7-(2-amino-2-oxoethyl)-10-(3-amino-3-oxopropyl)-16-(4-hydroxybenzoyl)-13-[(1S)-1-methylpropyl]-6,9,12,15,18-pentaoxo-1,2-dithia-5,8,11,14,17-pentaazacycloicosan-4-yl}carbonyl)-L-prolyl-L-leucylglycinamide] (H-C[X1]IQNCPLG-NH2; disulfide 1-6) | – | – | – | – | – | – | – | – | – | – | – | – | – | arousal or orgasm on the Acute Sexual Experiences Scale (ASES) (men): failed to increase arousal or orgasm; effect on sexual function in case reports (patients): pro-sexual effects
O=c1n(CCCN2CCN(c3cccc(Cl)c3)CC2)nc2ccccn12 [Trz, 2-{3-[4-(3-chlorophenyl)piperazin-1-yl]propyl}[1,2,4]triazolo[4,3-a]pyridin-3(2H)-one] | 20 | 6/30 | 25 | 3/12 | 17 | 3/18 | low | 0.07 ± 0.38 | 0.14 ± 0.53 | 7 | 2 | 0, 0% | 0, 0% | 0-2 Daily Desire Score, % of max. (healthy volunteer [2]; total, all four weeks): 4%; 0-2 Daily Desire Score, total (healthy volunteer [2]; total, all four weeks): 2
CC(NC(C)(C)C)C(=O)c1cccc(Cl)c1 (racemic) [Bup, (±)-2-(tert-Butylamino)-1-(3-chlorophenyl)propan-1-one] | 20 | 6/30 | 27 | 4/15 | 13 | 2/15 | intermediate | 0.82 ± 0.55 | 0.65 ± 0.74 | 32 | 9 | 50% | 14 | arousal, % of sexual events improved (healthy volunteer [1]; third and fourth weeks of use): 0%; arousal, % of sexual events improved (healthy volunteer [1]; total for all four weeks): 20%; arousal, % of sexual events improved (healthy volunteer [1]; weeks 1-2): 40%; arousal, sexual events improved, n/N (healthy volunteer [1]; weeks 1-2): ⅖; PGI Improved for Sexual Events, Sum of 3 domains, % improved (healthy volunteer [1]; wks 3-4, listed as B): 20% and 13%; sexual desire, comparison of bupropion alone with trazodone alone (healthy volunteer [2]; listed as B): markedly superior to T; sexual desire, comparison of bupropion alone with trazodone alone (healthy volunteer [2]; listed as Treatment B): superior to Treatment T
